Measurements published in publication PMC6982022 (International Journal of Molecular Sciences, 2019).
Entries after “also recorded” stand apart in the source; their conditions may differ. Where two headings read alike, the source gives them in different places.

Experiments:
[1] = test system: C57BL6J mice; experiment: Testis histology (H&E) after 35 days oral dosing; format: in vivo, mouse; settings: 15, 25 or 50 mg/kg, oral daily
Method: Groups of six mice, each, were used for three different doses of NB-DNJ or NB-DGJ formulated in milliQ water at 50 mg/kg, 25 mg/kg and 15 mg/kg, respectively. Control groups were given an equivalent volume of water. Animals were given compound or control once daily for 35 consecutive days via oral gavage using animal feeding needles (Biomedical Needles, Popper, NY, USA). Body weight was noted every week for all treatment groups. Mice were euthanized at the end of a 35 days dosing regimen using CO2 asphyxia followed by cervical dislocation. Testes were harvested, weighed and stored in Bouin’s fixative for 48 h, then sliced into two halves, and stored in fresh Bouin’s for another 24 h. The tissue slices were then rinsed in 70% ethanol and processed and stained for histology using a standard protocol for Hematoxylin and eosin staining. Spermatids with elongated and abnormally shaped heads were counted per 20 fields and average number calculated for 6 mice/group.

[2] = test system: male CD rats; experiment: Rat mating trial (fertility); format: in vivo; settings: for Conceptus, mean abnormal / Fertile/Mated / Conceptus, mean normal: 150 mg/kg/day oral days 0-34
Method: Eighteen adult male CD rats were divided into three groups of six rats each. One group of six CD rats was treated with vehicle (distilled water containing 0.9% benzyl alcohol) via oral gavage (5 mL/kg/day), and the second group (6 rats) was treated with NB-DGJ (in distilled water containing 0.9% benzyl alcohol) via oral gavage at 150 mg/kg/day (in approximately 5 mL/kg of water) daily for 35 consecutive days. The third group (6 rats) was treated with 15 mg/kg NB-DNJ in distilled water containing 0.9% benzyl alcohol) via oral gavage (in approximately 5 mL/kg of water) daily for 35 consecutive days (Figure S5).
Rats were weighed on day 0 (first day of dosing) and weekly thereafter. Dosages were adjusted based on the most recent body weight. Males were cohabited with untreated females (one male per two females) weekly at weeks 1 through 9 [38, 39]. Females were necropsied seven days after separation from males to determine the numbers of implantation sites. Individual male rats were bled from the tail vein at weeks 0, 1, 4, and 7 and serum was harvested by centrifugation. At week 11, the male rats were weighed, anesthetized, and exsanguinated. Sera were analyzed for inhibin B by ELISA (enzyme-linked immunosorbent assay), and rat follicle stimulating hormone (rFSH) and testosterone by radioimmunoassay. Testes, epididymides, ventral prostates, and seminal vesicles were excised and weighed. The left testis was homogenized, and spermatid head counts obtained.
Statistical analysis using the Student’s t-test was performed on body weights, paired testes weights, ventral prostrate weights, seminal vesicle weights, paired epididymal weights, spermatid head counts, percent motile and normal epididymal sperm. We used analysis of variance (ANOVA) for serum inhibin B, rFSH, and testosterone, since these measurements were repeated throughout the study period. The effect of NB-DNJ at 15 mg/kg/day dose in the rat model was studied following the same protocol as that for NB-DGJ.

[3] = Pharmacokinetic study, single oral bolus, plasma LC/MS/MS; format: in vivo, rat; settings: male CD rats, single oral 150 mg/kg; for Cmax: male, CD, plasma, po, 150 mg/kg
Method: Four male CD rats (225–235 g) were purchased from Harlan (Indianapolis, IN, USA) with in-dwelling jugular cannulas and allowed to acclimate for 72 h in climate-regulated holding rooms in the University of Minnesota’s AAALAC-certified animal facilities. Standard rat chow and water were provided ad libitum throughout the study. NB-DGJ was formulated as described above to 33.75 mg/mL for in vivo administration. Rats were dosed orally by using a 15 G × 3” disposable gavage needle with a maximum volume of 5 mL/kg body weight. At various time points (0.083, 0.25, 0.5, 1, 2, 4, 8, 12, 24 and 48 h) following dosing, approximately 0.1 mL of blood was collected from each rat into BD Microtainer® with Lithium Heparin (Becton-Dickinson). Plasma was then isolated by allowing the samples to sit at room temperature for 30 min followed by microcentrifugation at 15,000× g for 5 min. Plasma samples were then stored at −70 °C until processing and analysis.
Frozen plasma samples were thawed on ice and processed by adding 2 volumes of 100% acetonitrile (containing 750 ng/mL miglitol (N-hydroxyethyl-1-deoxynojirimycin) as an internal standard) and vortexed. The samples were then incubated on ice for 1 h and then microcentrifuged at 15,000× g for 5 min. The cleared supernatants were then transferred to 12 × 32 mm glass vials with inserts (Thermo Scientific™ National™ Inserts for Target™ LoVial™ Wide-Opening Vials).
Processed samples were analyzed by LC/MS/MS using a previously published method. A standard curve consisting of normal rat plasma containing varying concentrations (1500, 500, 166.7, 55.6, 18.5, 6.2, 2.1, 0.7 and 0.22 ng/mL) of NB-DGJ was constructed and processed as described above. The analytical system was composed of a Quattro Ultima triple quadrupole MS/MS coupled with a Waters Acquity UPLC (Ultra Performance Liquid Chromatography). UPLC isocratic separation of analytes was performed using a Waters Atlantis Hilic 3 µm, 150 × 2.1 mm analytical column (Waters Corporation, Milford, MA, USA) maintained at 30 °C. The eluent was a mixture of acetonitrile/water/buffer (75/10/15, v/v/v) delivered at 0.25 mL/min. The buffer consisted of 100 mM ammonium acetate, pH 5. For the quantification of NB-DGJ and miglitol (internal standard), the transitions m/z 220 (Q1) → m/z 158 (Q3) and m/z 208 (Q1) → m/z 146 (Q3) were monitored, respectively. Data reduction was performed with QuanLynx software. PK analysis was performed by WinNonLin using a non-compartmental model.

Structure (SMILES): CCCCN1C[C@H](O)[C@@H](O)[C@@H](O)[C@H]1CO [NB-DGJ, N-butyldeoxygalactonojirimycin]
- Testis histology, spermatid heads (in words) [1]: rounded, abnormally shaped spermatid heads
- Treatment time after which fertility was blocked ([2]; 150 mg/kg/day oral): 35 days
- Conceptus, mean abnormal ([2]; week of study 1): 0.3
- Fertile/Mated ([2]; week of study 1): 6/6
- Conceptus, mean normal ([2]; week of study 1, both females per male): 14
- Conceptus, mean abnormal ([2]; week of study 2): 0.1
- Conceptus, mean normal ([2]; week of study 2): 6
- Fertile/Mated ([2]; week of study 2): 6/6
- Conceptus, mean abnormal ([2]; week of study 3): 0
- Conceptus, mean normal ([2]; week of study 3): 1
- Fertile/Mated ([2]; week of study 3): 3/6
- Conceptus, mean abnormal ([2]; week of study 4): 0/0
- Conceptus, mean normal ([2]; week of study 4): 0/0
- Fertile/Mated ([2]; week of study 4): 0/6
- Conceptus, mean abnormal ([2]; week of study 5): 2
- Fertile/Mated ([2]; week of study 5): 6/6
- Conceptus, mean normal ([2]; week of study 5 (after termination of dosing)): 10
- Conceptus, mean abnormal ([2]; week of study 6): 0.3
- Conceptus, mean normal ([2]; week of study 6): 13
- Fertile/Mated ([2]; week of study 6): 6/6
- Conceptus, mean abnormal ([2]; week of study 7): 0.3
- Conceptus, mean normal ([2]; week of study 7): 13
- Fertile/Mated ([2]; week of study 7): 6/6
- Conceptus, mean abnormal ([2]; week of study 8): 0.3
- Conceptus, mean normal ([2]; week of study 8): 14
- Fertile/Mated ([2]; week of study 8): 6/6
- Conceptus, mean abnormal ([2]; week of study 9): 0.5
- Conceptus, mean normal ([2]; week of study 9): 13
- Fertile/Mated ([2]; week of study 9): 6/6
- Return of fertility after termination of dosing ([2]; 150 mg/kg/day oral for 35 days): within one week
- Reduction of numbers of normal conceptuses ([2]; 150 mg/kg/day oral, second week): 50%
- Treated rats infertile ([2]; 150 mg/kg/day oral, week four): 100%
- Treated rats rendered infertile ([2]; 150 mg/kg/day oral, week three): 50%
- Effect on fertility (in words) ([2]; 150 mg/kg/day, daily single oral dose, 35 days): induced reversible infertility; also recorded: caused reversible infertility
- Adverse effects in treated animals ([2]; daily dose of 150 mg/kg, 35 days): lack of adverse effects
- t½_Lambda_z ([3]; n = 4, plasma): 6.5 h
- Cmax ([3]; rat, converted from ng/mL, read-out: Cmax (plasma level) in molar units): 50 µM
- Cmax ([3]; rat, n = 4, plasma, read-out: Cmax): 11000 ng/mL
- tmax ([3]; rat, n = 4, plasma): 1.3 h
- AUC(0-inf) ([3]; rat, n = 4, plasma, non-compartmental, read-out: AUCINF_Obs): 55600 ng·h/mL
